Tested on: KMS.12.BM cell line (human myeloma)
Assay: KMS.12.BM cell viability assay
Format: cell-based
Conditions: 72 h, 3 days, ATP quantitation (Cell Titer-GLO), concentration for 50% cell death
Procedure: KMS.12.BM cell line (human myeloma) was purchased from JCRB (Osaka, Japan) and maintained in RPMI with 10% FBS culture medium. To measure the cytotoxic activity of the compounds through ATP quantitation, the KMS. 12.BM cells are plated in the RPMI culture medium at 5000 cells/well/per 100 μL into a 96-well polystyrene clear black tissue culture plate (Greiner-bio-one through VWR, NJ), in the presence or absence of a concentration range of test compounds. After 3 days, […] Cell Titer-GLO Luminescent (Promega, Madison, Wis.) cell culture agent is added to each well for 10 minutes at room temperature to stabilize the luminescent signal. This determines the number of viable cells in culture based on quantitation of the ATP present, which signals the presence of metabolically active cells. Luminescence is measured with the Top Count 384 (Packard Bioscience through Perkin Elmer, Boston, Mass.). Compound inhibition is determined relative to cells cultured with no drug and the IC50 is reported as the compound concentration required for 50% cell death.

SMILES	IC50 [µM]
Cn1cc(-c2cc(S(C)(=O)=O)cc3c2OC(c2ccccc2)C(=O)N3)c2cc[nH]c2c1=O (stereo not shown) [Example 46, 8-(6-methyl-7-oxo-6,7-dihydro-1H-pyrrolo[2,3-c]pyridin-4-yl)-6-(methylsulfonyl)-2-phenyl-2H-1,4-benzoxazin-3(4H)-one]	≤ 1
CC(=O)c1cc2c(c(-c3cn(C)c(=O)c4[nH]ccc34)c1)OC(C)(C)C(=O)N2 [Example 80, 6-acetyl-2,2-dimethyl-8-(6-methyl-7-oxo-6,7-dihydro-1H-pyrrolo[2,3-c]pyridin-4-yl)-2H-1,4-benzoxazin-3(4H)-one]	≤ 1
CC(=O)c1cc(-c2cn(C)c(=O)c3[nH]ccc23)c2c(c1)N(C)C(=O)C(C)(C)O2 [Example 82, 6-acetyl-2,2,4-trimethyl-8-(6-methyl-7-oxo-6,7-dihydro-1H-pyrrolo[2,3-c]pyridin-4-yl)-2H-1,4-benzoxazin-3(4H)-one]	≤ 1
CC(=O)c1cc2c(c(-c3cn(C)c(=O)c4[nH]ccc34)c1)OC(C(C)C)C(=O)N2 (stereo not shown) [Example 49, 6-acetyl-2-isopropyl-8-(6-methyl-7-oxo-6,7-dihydro-1H-pyrrolo[2,3-c]pyridin-4-yl)-2H-1,4-benzoxazin-3(4H)-one]	≤ 1

— patent publication US11059821B2, “1H-pyrrolo[2,3-c]pyridin-7(6H)-ones and pyrazolo[3,4-c]pyridin-7(6H)-ones as inhibitors of BET proteins” (Incyte Corporation, priority 2014, dated 2021)
